Data published in PMC3825844 (Analytical biochemistry, 2013).

Key:
[1] = test system: PXR-SRC (steroid receptor coactivator) tethered protein; conditions: read-out: hypothetical Kd, circular dichroism; cited from earlier work
[2] = test system: PXR protein (without SRC); conditions: affinity selection-mass spectrometry; cited from earlier work
[3] = Solubility observed in TR-FRET assay dilution series; assay type: physicochemical; conditions: at 100 μM, TR-FRET assay buffer, […] DMSO

For `Clc1ccccc1C(c1ccccc1)(c1ccccc1)n1ccnc1` [Clotrimazole, 1-[(2-chlorophenyl)diphenylmethyl]-1H-imidazole], the Kd [1] is given as 290 nM, the Kd [2] is given as 330 nM and the solubility in assay [3] is given as “incomplete solubility”.

In the case of `CO[C@H]1/C=C/O[C@@]2(C)Oc3c(C)c(O)c4c(O)c(c(/C=N/N5CCN(C)CC5)c(O)c4c3C2=O)NC(=O)/C(C)=C\C=C\[C@H](C)[C@H](O)[C@@H](C)[C@@H](O)[C@@H](C)[C@H](OC(C)=O)[C@@H]1C` [Rifampicin, 3-(4-methylpiperazinyliminomethyl)rifamycin SV], the Kd [1] is given as 540 nM and the Kd [2] is given as […].
